Data published in ChEMBL document CHEMBL3227961, “Antileukemic activity of substituted ureidothiazoles, ureidothiadiazoles, and related compounds” (J Med Chem, 1979).
Activity calls are given as the source filed them. The calls are words filed in the database; no cut-off is given here.

Legend:
[1] = test system: P388; test: Antitumor activity against mouse P388 cells allografted in BDF1 mouse assessed as tumor growth inhibition at 25 mg/kg administered as qd for 1 to 9 days relative to control; type: functional
[2] = test system: P388; test: Antitumor activity against mouse P388 cells allografted in BDF1 mouse assessed as tumor growth inhibition at 50 mg/kg administered as qd for 1 to 9 days relative to control; type: functional
[3] = test system: P388; test: Antitumor activity against mouse P388 cells allografted in BDF1 mouse assessed as survival at 100 mg/kg administered as qd for 1 to 9 days; type: functional, organism-based; design: dose 100 mg/kg
[4] = test system: P388; test: Antitumor activity against mouse P388 cells allografted in BDF1 mouse assessed as survival at 200 mg/kg administered as qd for 1 to 9 days; type: functional, organism-based; design: dose 200 mg/kg
[5] = test system: P388; test: Antitumor activity against mouse P388 cells allografted in BDF1 mouse assessed as survival at 50 mg/kg administered as qd for 1 to 9 days; type: functional, organism-based; design: dose 50 mg/kg
[6] = test system: P388; test: Antitumor activity against mouse P388 cells allografted in BDF1 mouse assessed as survival at 25 mg/kg administered as qd for 1 to 9 days; type: functional, organism-based; design: dose 25 mg/kg
[7] = test system: P388; test: Antitumor activity against mouse P388 cells allografted in BDF1 mouse assessed as tumor growth inhibition at 100 mg/kg administered as qd for 1 to 9 days relative to control; type: functional
[8] = test system: P388; test: Antitumor activity against mouse P388 cells allografted in BDF1 mouse assessed as tumor growth inhibition at 200 mg/kg administered as qd for 1 to 9 days relative to control; type: functional
[9] = test system: P388; test: Antitumor activity against mouse P388 cells allografted in BDF1 mouse assessed as tumor growth inhibition at 400 mg/kg administered as qd for 1 to 9 days relative to control; type: functional
[10] = test system: P388; test: Antitumor activity against mouse P388 cells allografted in BDF1 mouse assessed as survival at 400 mg/kg administered as qd for 1 to 9 days; type: functional, organism-based; design: dose 400 mg/kg
[11] = test system: P388; test: Antitumor activity against mouse P388 cells allografted in BDF1 mouse assessed as tumor growth inhibition at 12.5 mg/kg administered as qd for 1 to 9 days relative to control; type: functional
[12] = test system: P388; test: Antitumor activity against mouse P388 cells allografted in BDF1 mouse assessed as survival at 12.5 mg/kg administered as qd for 1 to 9 days; type: functional, organism-based; design: dose 12.5 mg/kg
[13] = test system: B16; test: Antitumor activity against mouse B16 cells allografted in BDF1 mouse assessed as tumor growth inhibition at 200 mg/kg administered as qd for 1 to 9 days relative to control; type: functional
[14] = test system: Lewis lung carcinoma cell line; test: Antitumor activity against mouse LLC cells allografted in BDF1 mouse assessed as tumor growth inhibition; type: functional
[15] = test system: B16; test: Antitumor activity against mouse B16 cells allografted in BDF1 mouse assessed as tumor growth inhibition at 50 mg/kg administered as qd for 1 to 9 days relative to control; type: functional
[16] = test system: B16; test: Antitumor activity against mouse B16 cells allografted in BDF1 mouse assessed as tumor growth inhibition at 100 mg/kg administered as qd for 1 to 9 days relative to control; type: functional
[17] = test system: B16; test: Antitumor activity against mouse B16 cells allografted in BDF1 mouse assessed as tumor growth inhibition at 25 mg/kg administered as qd for 1 to 9 days relative to control; type: functional
[18] = test system: L1210; test: Antitumor activity against mouse L1210 cells allografted in BDF1 mouse assessed as tumor growth inhibition at 200 mg/kg administered as qd for 1 to 9 days relative to control; type: functional
[19] = test system: B16; test: Antitumor activity against mouse B16 cells allografted in BDF1 mouse assessed as tumor growth inhibition at 400 mg/kg administered as qd for 1 to 9 days relative to control; type: functional
[20] = test system: Mus musculus; test: Toxicity in mouse B16 cells allografted in BDF1 mouse at 6.25 to 50 mg/kg administered as qd for 1 to 9 days; type: organism-based
[21] = test system: B16; test: Antitumor activity against mouse B16 cells allografted in BDF1 mouse assessed as tumor growth inhibition at 6.25 to 50 mg/kg administered as qd for 1 to 9 days relative to control; type: functional, organism-based

Compound | T/C [1] [%] | T/C [2] [%] | Activity [3] | Activity [4] | Activity [5] | T/C [7] [%] | T/C [8] [%] | other results
CCOC(=O)Nc1nncs1 | 108 | 132 | Active | Active | Active | 142 | 151 | Activity [6]: Active
CCOC(=O)c1ccc(NC(=S)Nc2nccs2)cc1 |  |  | Active |  |  | 95 | 92 | T/C [9]: 92%
O=C(CCl)Nc1nccs1 |  | 103 | Active |  | Active | 116 |  | 
O=C(Nc1ccc([N+](=O)[O-])cc1)Nc1nncs1 |  |  | Active |  |  | 124 | 132 | T/C [9]: 142%
O=C(Nc1nccs1)C(F)(F)F |  |  | Active |  |  | 104 | 99 | T/C [9]: 108%; Activity [10]: Active
O=C(CCl)Nc1nncs1 |  |  | Active | Active |  | 104 | 100 | 
CCOC(=O)c1ccc(NC(=O)Nc2nc3ccc(OC)cc3s2)cc1 |  |  |  | Active |  |  | 89 | T/C [9]: 89%; Activity [10]: Active
O=C(Nc1nncs1)C(F)(F)F | 130 | 161 |  |  | Active |  |  | T/C [11]: 110%; Activity [12]: Active
Cc1ccc(S(=O)(=O)NC(=O)Nc2nccs2)cc1 |  |  | Active | Active |  | 106 | 99 | 
Cc1ccc(NC(=O)Nc2nccs2)cc1 |  |  | Active | Active |  | 99 | 105 | 
O=C(Nc1ccccc1)Nc1nncs1 | 104 |  |  |  |  |  |  | T/C [11]: 104%; Activity [12]: Active; Activity [6]: Active
O=C(Nc1ccccc1)Nc1nccs1 |  |  | Active | Active |  | 96 | 93 | 
O=C(Nc1ccc(C(=O)O)cc1)Nc1nccs1 | 125 | 143 | Active | Active | Active | 150 | 163 | Activity [6]: Active
CNC(=O)Nc1nccs1 |  | 105 |  | Active | Active | 96 | 97 | 
CCOC(=O)c1ccc(NC(=O)Nc2scc[n+]2C)cc1.COS(=O)(=O)[O-] |  |  | Active |  |  | 100 | 90 | 
O=C(Nc1ccc([N+](=O)[O-])cc1)Nc1nccs1 | 127 | 142 |  |  | Active |  |  | T/C [11]: 112%; Activity [12]: Active; Activity [6]: Active
CCOC(=O)c1ccc(NC(=O)Nc2nnn[nH]2)cc1 |  |  |  | Active |  |  | 100 | T/C [9]: 108%; Activity [10]: Active
CCOC(=O)c1ccc(NC(=O)Nc2nc(C)cs2)cc1 |  | 109 | Active | Active | Active | 127 | 138 | 
CCOC(=O)Nc1nccs1 |  |  | Active | Active |  | 102 | 108 | 
CCOC(=O)c1ccc(NC(=O)Nc2nccs2)cc1 | 145 | 149 | Active |  | Active | 143 | 162 | T/C [13]: 167%; TGI [14]: inactive; T/C [15]: 147%; T/C [16]: 166%; T/C [17]: 134%; T/C [18]: 125%; Activity [6]: Active; T/C [19]: 153%
CCOC(=O)c1ccc(NC(=O)NC2=NCCS2)cc1 |  |  |  | Active |  |  | 87 | T/C [9]: 92%; Activity [10]: Active
O=C(Nc1ccc(Cl)cc1)Nc1nccs1 |  | 111 | Active |  | Active | 118 |  | 
CCOC(=O)c1ccc(NC(=O)Nc2nc3ccccc3s2)cc1 |  |  |  | Active |  |  | 90 | T/C [9]: 90%; Activity [10]: Active
N#Cc1ccc(NC(=O)Nc2nccs2)cc1 | 124 | 132 |  |  | Active | 160 |  | Activity [6]: Active
CCOC(=O)c1ccc(NC(=O)Nc2nnc(NC(=O)Nc3ccc(C(=O)OCC)cc3)[nH]2)cc1 |  | 89 | Active |  | Active | 88 |  | 
N#Cc1ccc(NC(=O)Nc2nncs2)cc1 | 122 | 131 | Active |  | Active | 140 | 146 | Activity [6]: Active
CCOC(=O)c1ccc(NC(=O)Nc2nncs2)cc1 | 132 | 138 | Active |  | Active | 134 |  | T/C [11]: 119%; Activity [20]: Non-toxic; TGI [21]: inactive; Activity [12]: Active; Activity [6]: Active
